Series [1] deals with Asexual parasites of P. falciparum strain 3D7. Description: In vitro drug activity on asexual parasites (SYBR Green assay). The class given is cell-based. Conditions: Plasmodium falciparum, P. falciparum 3D7 asexual stage, 72 h, read-out: Asexual EC50. The essentials: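 3D7 asexual cultures at 0.5% parasitemia and 2% hematocrit were exposed to drug (DMSO <0.5%) for 72 h under standard culture conditions, in duplicate with no-drug and RBC-only controls. After freeze-thaw lysis, SYBR Green I lysis buffer was added for 30 min at room temperature; fluorescence was read at 490 nm excitation/520 nm emission.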

A short description of series [2]: Microsomal stability (rat). The series is classed as in vitro ADME. The settings on record: rat microsomes.
A further series can be described thus: Solubility pH 7.4. The class given is physicochemical. The settings on record: aqueous buffer.
Where [3] appears, read: Table 1, read-out: Microsomal Stability (rat) T1/2.
Setting [4] is: Table 3, read-out: Microsomal Stability (rat) T1/2.
Where [5] appears, read: Table 2, read-out: Microsomal Stability (rat) T1/2.

In brackets after ≈: the same amount, converted by molar mass. Where two headings read alike, the source gives them in different places. Where only a bound is given, the exact number is not on record here.

As for `Cc1cc(N2CCN(C(=O)OC(C)(C)C)CC2)c(C#N)cc1-n1c(=N)n(C)c2cnc3ccc(-c4ccc(Cl)cc4)cc3c21` [Compound 15, tert-butyl 4-(4-(8-(4-chlorophenyl)-2-imino-3-methyl-2,3-dihydro-1H-imidazo[4,5-c]quinolin-1-yl)-2-cyano-5-methylphenyl)piperazine-1-carboxylate], the EC50 in series [1] (Table 1) amounted to 591 nM. In series [2] (setting [3]), the half-life was above 30 min. The solubility in “Solubility pH 7.4” (Table 1) was below 1 µg/mL.

For the molecule `Cc1cc(N2CCN(C)CC2)c(C#N)cc1-n1c(=N)n(C)c2cnc3ccc(-c4cccc(F)c4)cc3c21` [Compound 144, 5-(8-(3-fluorophenyl)-2-imino-3-methyl-2,3-dihydro-1H-imidazo[4,5-c]quinolin-1-yl)-4-methyl-2-(4-methylpiperazin-1-yl)benzonitrile], in series [1] (Table 1), the EC50 is 159 nM. Besides, the half-life in series [2] (setting [3]) is above 30 min. In addition, the solubility in the series “Solubility pH 7.4” (Table 1) is above 50 µg/mL.

Regarding `Cn1c(=N)n(-c2ccnc(N)n2)c2c3cc(-c4ccc(Cl)cc4)ccc3ncc21`, the EC50 in series [1] (Table 3) came out at 140 nM. Further, the half-life in series [2] (setting [4]) is above 30 min. Moreover, the concentration in solution in the series “Solubility pH 7.4” (Table 3) (solubility) came to 3.4 µg/mL (≈ 8.46 µM).

`Cn1c(=N)n(-c2nccc(N)n2)c2c3cc(-c4cccc(F)c4)ccc3ncc21`: the EC50 in series [1] (Table 3) came out at 1570 nM. In addition, the half-life in series [2] (setting [4]) was above 30 min. In addition, the concentration in solution in “Solubility pH 7.4” (Table 3) (solubility) was 5.2 µg/mL (≈ 13.5 µM).

For `CCCCOC(=O)/N=c1\n(C)c2cnc3ccc(-c4ccc(Cl)cc4)cc3c2n1-c1cc(C#N)ccc1C` [Compound 89, butyl (E)-(8-(4-chlorophenyl)-1-(5-cyano-2-methylphenyl)-3-methyl-1,3-dihydro-2H-imidazo[4,5-c]quinolin-2-ylidene)carbamate], the EC50 in series [1] (Table 1) is 601 nM. For the same molecule, the half-life in series [2] (setting [3]) worked out at 6.2 min. Besides, the solubility in the series “Solubility pH 7.4” (Table 1) was below 1 µg/mL.

With `COC(=O)/N=c1\n(C)c2cnc3ccc(-c4cccc(F)c4)cc3c2n1-c1cc(C#N)c(N2CCN(C)CC2)cc1C` [Compound 146, Methyl (E)-(1-(5-cyano-2-methyl-4-(4-methylpiperazin-1-yl)phenyl)-8-(3-fluorophenyl)-3-methyl-1,3-dihydro-2H-imidazo[4,5-c]quinolin-2-ylidene)carbamate], in series [1] (Table 1), the EC50 amounted to 62.7 nM. Besides, the half-life in series [2] (setting [3]) is 21.2 min. The molecule further displayed a solubility in the series “Solubility pH 7.4” (Table 1) of 14.5 µg/mL (≈ 25.7 µM).

Take `Cc1ccc(C#N)cc1-n1c(=N)n(C)c2cnc3ccc(C#Cc4ccccc4)cc3c21` [Compound 154, 3-(2-imino-3-methyl-8-(phenylethynyl)-2,3-dihydro-H-imidazo[4,5-c]quinolin-1-yl)-4-methylbenzonitrile]: the EC50 in series [1] (Table 1) amounted to 1750 nM. The half-life in series [2] (setting [3]) is above 30 min. Moreover, the solubility in “Solubility pH 7.4” (Table 1) worked out at 1.4 µg/mL (≈ 3.39 µM).

`Cn1c(=N)n([C@H]2CC[C@@H](N3CCOCC3)CC2)c2c3cc(-c4ccc(Cl)cc4)ccc3ncc21` [Compound 59, 8-(4-chlorophenyl)-3-methyl-1-((1s,4s)-4-morpholinocyclohexyl)-1,3-dihydro-2H-imidazo[4,5-c]quinolin-2-imine]: in series [1] (Table 1), the EC50 worked out at 13200 nM. In series [2] (setting [3]), the half-life is above 30 min. The molecule further displayed a solubility in “Solubility pH 7.4” (Table 1) above 47 µg/mL.

For `Cn1cc(-n2c(=N)n(C)c3cnc4ccc(-c5ccc(Cl)cc5)cc4c32)cn1` [Compound 13, 8-(4-chlorophenyl)-3-methyl-1-(1-methyl-1H-pyrazol-4-yl)-1,3-dihydro-2H-imidazo[4,5-c]quinolin-2-imine], in series [1] (Table 1), the EC50 was 477 nM. In addition, in series [2] (setting [3]), the half-life is above 30 min. The molecule also yielded a solubility in “Solubility pH 7.4” (Table 1) above 38 µg/mL.

For the molecule `Cc1ccc(C#N)cc1-n1/c(=N/S(N)(=O)=O)n(C)c2cnc3ccc(-c4ccc(N)nc4)cc3c21` [Compound 101, (8-(6-aminopyridin-3-yl)-1-(5-cyano-2-methylphenyl)-3-methyl-1,3-dihydro-2H-imidazo[4,5-c]quinolin-2-ylidene)sulfonamide], the EC50 in series [1] (Table 1) is 3.07 nM. In series [2] (setting [3]), the half-life is above 30 min. In “Solubility pH 7.4” (Table 1), this molecule showed a solubility of 2.2 µg/mL (≈ 4.54 µM).

On to `Cn1c(=N)n(-c2cnc(N3CCOCC3)c(C#N)c2)c2c3cc(-c4ccc(Cl)cc4)ccc3ncc21` [Compound 50, 5-(8-(4-chlorophenyl)-2-imino-3-methyl-2,3-dihydro-1H-imidazo[4,5-c]quinolin-1-yl)-2-morpholinonicotinonitrile], for which, in series [1] (Table 1), the EC50 turned out to be 309 nM. The half-life in series [2] (setting [3]) is above 30 min. Besides, in the series “Solubility pH 7.4” (Table 1), the solubility was below 1 µg/mL.

For the molecule `Cn1c(=N)n(-c2nccc(O)n2)c2c3cc(-c4ccc(Cl)cc4)ccc3ncc21`, in series [1] (Table 3), the EC50 is 43100 nM. For the same molecule, the half-life in series [2] (setting [4]) is above 30 min. For the same molecule, the solubility in the series “Solubility pH 7.4” (Table 3) was below 1 µg/mL.

Regarding `CCn1c(=N)n(-c2cc(C#N)ccc2C)c2c3cc(-c4ccc(Cl)cc4)ccc3ncc21` [Compound 93, 3-(8-(4-chlorophenyl)-3-ethyl-2-imino-2,3-dihydro-1H-imidazo[4,5-c]quinolin-1-yl)-4-methylbenzonitrile], the EC50 in series [1] (Table 1) is 813 nM. In addition, the half-life in series [2] (setting [3]) is above 30 min. In “Solubility pH 7.4” (Table 1), this molecule showed a solubility of 13.6 µg/mL (≈ 31.1 µM).

`Cc1ccc(C#N)cc1-n1c(=N)n(C)c2cnc3ccc(-c4ccc(N)nc4)cc3c21` [Compound 2, 3-(8-(6-aminopyridin-3-yl)-2-imino-3-methyl-2,3-dihydro-H-imidazo[4,5-c]quinolin-1-yl)-4-methylbenzonitrile]: the EC50 in series [1] (Table 1) came to 5.31 nM. For the same molecule, in series [2] (setting [3]), the half-life was above 30 min. Further, the solubility in “Solubility pH 7.4” (Table 1) was above 60 µg/mL.

`Cc1ccc(S(=O)(=O)/N=c2\n(C)c3cnc4ccc(-c5ccc(Cl)cc5)cc4c3n2-c2cc(C#N)ccc2C)cc1` [Compound 16, (E)-N-(8-(4-chlorophenyl)-1-(5-cyano-2-methylphenyl)-3-methyl-1,3-dihydro-2H-imidazo[4,5-c]quinolin-2-ylidene)-4-methylbenzenesulfonamide]: the EC50 in series [1] (Table 1) was determined as 240 nM. For the same molecule, the half-life in series [2] (setting [3]) was 10.4 min. In the series “Solubility pH 7.4” (Table 1), the solubility was below 1 µg/mL.

On to `Cc1ccc(-n2c(=N)n(C)c3cnc4ccc(-c5ccc(Cl)cc5)cc4c32)cc1C#N` [Compound 70, 5-(8-(4-chlorophenyl)-2-imino-3-methyl-2,3-dihydro-1H-imidazo[4,5-c]quinolin-1-yl)-2-methylbenzonitrile], for which the EC50 in series [1] (Table 1) came to 443 nM. The half-life in series [2] (setting [3]) was above 30 min. In “Solubility pH 7.4” (Table 1), the solubility was below 1 µg/mL.

Turning to `Cc1ccc(S(C)(=O)=O)cc1-n1c(=N)n(C)c2cnc3ccc(-c4ccc(Cl)cc4)cc3c21` [Compound 122, 8-(4-chlorophenyl)-3-methyl-1-(2-methyl-5-(methylsulfonyl)phenyl)-1,3-dihydro-2H-imidazo[4,5-c]quinolin-2-imine], in series [1] (Table 1), the EC50 was 1610 nM. The half-life in series [2] (setting [3]) is above 30 min. In the series “Solubility pH 7.4” (Table 1), this molecule had a solubility above 47 µg/mL.

In the case of `Cc1cc(N2CCN(C(N)=O)CC2)c(C#N)cc1-n1c(=N)n(C)c2cnc3ccc(-c4ccc(Cl)cc4)cc3c21` [Compound 126, 4-(4-(8-(4-chlorophenyl)-2-imino-3-methyl-2,3-dihydro-1H-imidazo[4,5-c]quinolin-1-yl)-2-cyano-5-methylphenyl)piperazine-1-carboxamide], the EC50 in series [1] (Table 1) was 14.5 nM. For the same molecule, the half-life in series [2] (setting [3]) is above 30 min. For the same molecule, in “Solubility pH 7.4” (Table 1), the concentration in solution (solubility) was 2.2 µg/mL (≈ 3.99 µM).

Regarding `Cc1cc(C#N)cc(-n2c(=N)n(C)c3cnc4ccc(-c5ccc(Cl)cc5)cc4c32)c1` [Compound 71, 3-(8-(4-chlorophenyl)-2-imino-3-methyl-2,3-dihydro-1H-imidazo[4,5-c]quinolin-1-yl)-5-methylbenzonitrile], the EC50 in series [1] (Table 1) amounted to 511 nM. For the same molecule, the half-life in series [2] (setting [3]) is above 30 min. The same molecule had a solubility in “Solubility pH 7.4” (Table 1) below 1 µg/mL.

For `N=c1ccc2cnc3ccc(-c4ccc(Cl)cc4)cc3c2n1-c1ccc(C(=O)NC2CC2)cc1`, in series [1] (Table 2), the EC50 amounted to 85.7 nM. Also, the half-life in series [2] (setting [5]) is above 30 min. Besides, in the series “Solubility pH 7.4” (Table 2), the solubility was above 69 µg/mL.

For `Cn1c(=N)n(-c2ccccc2)c2c3cc(-c4ccc(Cl)cc4)ccc3ncc21` [Compound 63, 8-(4-chlorophenyl)-3-methyl-1-phenyl-1,3-dihydro-2H-imidazo[4,5-c]quinolin-2-imine], the EC50 in series [1] (Table 1) was 1040 nM. Besides, in series [2] (setting [3]), the half-life was above 30 min. Further, the solubility in “Solubility pH 7.4” (Table 1) was found to be 5.7 µg/mL (≈ 14.8 µM).

For the molecule `N#Cc1cccc(-n2c(=N)ccc3cnc4ccc(-c5ccc(Cl)cc5)cc4c32)c1`, in series [1] (Table 2), the EC50 was 186 nM. Also, the half-life in series [2] (setting [5]) was above 30 min. In the series “Solubility pH 7.4” (Table 2), this molecule registered a solubility of 25.9 µg/mL (≈ 63.7 µM).

As to `Cn1c(=N)n(-c2cccc(S(N)(=O)=O)c2)c2c3cc(-c4ccc(Cl)cc4)ccc3ncc21` [Compound 77, 3-(8-(4-chlorophenyl)-2-imino-3-methyl-2,3-dihydro-1H-imidazo[4,5-c]quinolin-1-yl)benzenesulfonamide], in series [1] (Table 1), the EC50 is 1400 nM. Besides, the half-life in series [2] (setting [3]) is above 30 min. The amount in solution in “Solubility pH 7.4” (Table 1) (solubility) came to 6.2 µg/mL (≈ 13.4 µM).

Regarding `Cc1ccc(C#N)cc1-n1c(=N)n(C)c2cnc3ccc(-c4ccc(C(N)=O)s4)cc3c21` [Compound 1, 5-(1-(5-cyano-2-methylphenyl)-2-imino-3-methyl-2,3-dihydro-1H-imidazo[4,5-c]quinolin-8-yl)thiophene-2-carboxamide], the EC50 in series [1] (Table 1) turned out to be 8.36 nM. The half-life in series [2] (setting [3]) was above 30 min. The concentration in solution in the series “Solubility pH 7.4” (Table 1) (solubility) was 14.2 µg/mL (≈ 32.4 µM).

In the case of `Cc1cc(N2CCN(S(C)(=O)=O)CC2)c(C#N)cc1-n1c(=N)n(C)c2cnc3ccc(-c4ccc(Cl)cc4)cc3c21` [Compound 118, 5-(8-(4-chlorophenyl)-2-imino-3-methyl-2,3-dihydro-1H-imidazo[4,5-c]quinolin-1-yl)-4-methyl-2-(4-(methylsulfonyl)piperazin-1-yl)benzonitrile], the EC50 in series [1] (Table 1) worked out at 135 nM. For the same molecule, the half-life in series [2] (setting [3]) was above 30 min. In “Solubility pH 7.4” (Table 1), this molecule showed a solubility below 1 µg/mL.

These data come from patent US20210188843A1, “QUINOLINE COMPOUNDS AND THEIR PREPARATION AND USE AS ANTIMALARIAL AGENTS” (The United States of America,as represented by the …, priority 2018, published 2021).
